The source of these data is patent publication US12310975B2, “Modulators of BCL6 proteolysis and associated methods of use” (Arvinas Operations, Inc., priority 2019, dated 2025).

Read-outs that look alike come from different tables or passages of the source. Some results are limits rather than exact numbers.

The target in this assay is BCL6 (Homo sapiens (Human), UniProt P41182). Description: Immunofluorescence high content imaging of BCL6 degradation in T47D cells. As to conditions: for DC50: class symbols A-D, read-out: EC50 (nM)*. The format is cell-based. The procedure: Immunofluorescence Protocol for High Cotent Imaging of BCL6
T47D cells were seeded in 100 μl volume of RPMI1640-10% FBS in a 96-well black/clear bottom plates for adherent lines (Corning #3904).
Day 1. T47D breast cancer epithelial cells were seeded at a density so that confluence is ˜70-90% at endpoint. Cells were seeded at 7K/0.1 ml/well the morning prior to the addition of exemplary bifunctional degradation compounds.
Day 2. Prepare an 11 point 3-fold serial dilution of exemplary bifunctional compound in DMSO and aliquot an appropriate volume to cell growth media to generate a 2× final concentration of exemplary bifunctional compound. Add an equal volume (0.1 ml) of 2× exemplary bifunctional compound/media mix to previously plated cells, for a final top concentration in aqueous cell growth media of 0.1 or 1 μM. Incubate for 3 days at 37° C., 5% CO2.
Day 5 Immunofluorescence. Discard cell media. Wash wells with 200 μl of room temperature phosphate-buffered saline (PBS). Prepared 4% paraformaldehyde (PFA) from 16% PFA (Electron Microscopy Sciences #15710) using 1×PBS. Fifty μl of 4% PF was added to each well and incubate for 15 minutes at room temperature to fix the cells. The PFA was aspirated and the cells washed twice with PBS (200 μl)).
Prepared 0.1% Triton X-100 in PBS using 10% triton X-100 stock. The cells were permeabilized by adding 100 ul of the 0.1% Triton X-100 in PBS to each well to permeabilize cells and incubating at room temperature for 15 minutes. Cells were washed twice with PBS.
Prepared 3% BSA/PBS (from Thermofisher #37515 Blocker BSA in TBS, 10%), and 100 ul was added to each well. The cells were incubated for at least 1 hour at room temperature.
Prepared 1% BSA/PBS using Blocker BSA/PBS, and the 3% BSA/PBS removed from the wells.
For no primary antibody controls, 50 μl 1% BSA/PBS was added.
Primary antibody (BCL6 Rb Ab, CST-14895, Cell Signaling) was diluted 1:300 in 1% BSA/PBS using Blocker BSA/PBS.
Fifty μl of primary antibody added to all remaining wells (i.e., all wells other than the primary antibody controls) and the cells were incubated overnight at 4° C. with slow orbital movement.
Day 6. Contents of the wells was removed and the cells washed four times with 200 ul PBS. 1% BSA/PBS was prepared using Blocker BSA in PBS.
Diluted secondary antibody goat anti-Rb IgG Alexa-488 1:1000, and cell mask-Alexa-647 1:3000 in 1% BSA/PBS in the same mix. Add 50 μl to each well and incubate at room temperature for 1 hour in the dark.
Cells were washed three times with 200 ul PBS, and then incubated for 10 minutes with 100 ul Hoechst dye at 1 μg/mL (20 mM stock) to stain cell nuclei. Wells were then washed with 200 μl PBS, and 100 ul of PBS was added to each well and the plate covered plate with a plastic opaque cover. Plates were stored at 4° C. and covered in aluminum foil until imaged.
Plates were equilibrated to room temperature prior to reading. The bottom of the plate was wiped with 70% isopropanol immediately prior to imaging.
10×, 4 fields/well, include Top hat smoothing in the analysis protocol.

The term IC50 denotes the midpoint of a concentration-inhibition curve. For the compound `CNC(=O)COc1cc2cc(Nc3nc(N4CCN(CC5CCN(C(=O)c6ccc(N7CCC(=O)NC7=O)cc6)CC5)CC4)ncc3Cl)ccc2n(C(C)C)c1=O` [compound 402, 2-{[6-({5-chloro-2-[4-({1-[4-(2,4-dioxo-1,3-diazinan-1-yl)benzoyl]piperidin-4-yl}methyl)piperazin-1-yl]pyrimidin-4-yl}amino)-2-oxo-1-(propan-2-yl)-1,2-dihydroquinolin-3-yl]oxy}-N-methylacetamide], the IC50 (T47D cells) is at least 100 nM.

In general, Dmax refers to the largest share of the target that was removed. For the setting “T47D cells”, `CNC(=O)COc1cc2cc(Nc3nc(N4CCN(CC5CCN(c6cc7c(cc6OC)C(=O)N(C6CCC(=O)NC6=O)C7=O)CC5)CC4)ncc3Cl)ccc2n(C(C)C)c1=O` (stereo not drawn) [compound 404, 2-{[6-({5-chloro-2-[4-({1-[2-(2,6-dioxopiperidin-3-yl)-6-methoxy-1,3-dioxo-2,3-dihydro-1H-isoindol-5-yl]piperidin-4-yl}methyl)piperazin-1-yl]pyrimidin-4-yl}amino)-2-oxo-1-(propan-2-yl)-1,2-dihydroquinolin-3-yl]oxy}-N-methylacetamide] came in with a maximal degradation (Dmax) of at least 70% and an IC50 of 10 to 50 nM.

Take `CNC(=O)COc1cc2cc(Nc3nc(N4CCC(OCCOCCOCCOc5ccccc5OCCOc5ccc6c(c5)CN(C5CCC(=O)NC5=O)C6=O)CC4)ncc3Cl)ccc2n(C)c1=O` (stereo not drawn) [compound 110, 2-((6-((5-chloro-2-(4-(2-(2-(2-(2-(2-((2-(2,6-dioxopiperidin-3-yl)-1-oxoisoindolin-5-yl)oxy)ethoxy)phenoxy)ethoxy)ethoxy)ethoxy)piperidin-1-yl)pyrimidin-4-yl)amino)-1-methyl-2-oxo-1,2-dihydroquinolin-3-yl)oxy)-N-methylacetamide]: the DC50 is over 100 nM.

`CNC(=O)COc1cc2cc(Nc3nc(N4CCC(Cc5cn(CCOCCOCCOCCOCCOc6ccc7c(c6)C(=O)N(C6CCC(=O)NC6=O)C7=O)nn5)CC4)ncc3Cl)ccc2n(C)c1=O` (stereo not drawn) [compound 132, 2-((6-((5-chloro-2-(4-((1-(14-((2-(2,6-dioxopiperidin-3-yl)-1,3-dioxoisoindolin-5-yl)oxy)-3,6,9,12-tetraoxatetradecyl)-1H-1,2,3-triazol-4-yl)methyl)piperidin-1-yl)pyrimidin-4-yl)amino)-1-methyl-2-oxo-1,2-dihydroquinolin-3-yl)oxy)-N-methylacetamide]: the DC50 is over 100 nM.

In turn, `CCn1c(=O)c(OCC(=O)NC)cc2cc(Nc3nc(N4CCN(C(C)(C)C5CCN(c6cccc7c6C(=O)N(C6CCC(=O)NC6=O)C7=O)CC5)CC4)ncc3Cl)ccc21` (stereo not drawn) [compound 312, 2-{[6-({5-chloro-2-[4-(2-{1-[2-(2,6-dioxopiperidin-3-yl)-1,3-dioxo-2,3-dihydro-1H-isoindol-4-yl]piperidin-4-yl}propan-2-yl)piperazin-1-yl]pyrimidin-4-yl}amino)-1-ethyl-2-oxo-1,2-dihydroquinolin-3-yl]oxy}-N-methylacetamide] gave a concentration for half-maximal inhibition (IC50) of under 10 nM. In addition, the maximal degradation (Dmax) (T47D) was at least 70%.

With `CNC(=O)COc1cc2cc(Nc3nc(N4CCC(CCN5CCN(c6ccc7c(c6)C(=O)N(C6CCC(=O)NC6=O)C7=O)CC5)CC4)ncc3Cl)ccc2n(C)c1=O` (stereo not drawn) [compound 353, 2-{[6-({5-chloro-2-[4-(2-(4-[2-(2,6-dioxopiperidin-3-yl)-1,3-dioxo-2,3-dihydro-1H-isoindol-5-yl]piperazin-1-yl}ethyl)piperidin-1-yl]pyrimidin-4-yl}amino)-1-methyl-2-oxo-1,2-dihydroquinolin-3-yl]oxy}-N-methylacetamide], under “T47D cells”, the Dmax lay within 50 to 70% and the concentration for half-maximal inhibition (IC50) is under 10 nM.

Regarding `CNC(=O)COc1cc2cc(Nc3nc(N4CCC(OCCOCCOCCOCCOCCOCCOc5ccc6c(c5)CN(C5CCC(=O)NC5=O)C6=O)CC4)ncc3Cl)ccc2n(C)c1=O` (stereo not drawn) [compound 67, 2-((6-((5-chloro-2-(4-((17-((2-(2,6-dioxopiperidin-3-yl)-1-oxoisoindolin-5-yl)oxy)-3,6,9,12,15-pentaoxaheptadecyl)oxy)piperidin-1-yl)pyrimidin-4-yl)amino)-1-methyl-2-oxo-1,2-dihydroquinolin-3-yl)oxy)-N-methylacetamide], the DC50 was over 100 nM.

Consider `CNC(=O)COc1cc2cc(Nc3nc(N4CCC(OCCOCCOCCOCCOc5ccc6c(c5)C(=O)N(C5CCC(=O)NC5=O)C6=O)CC4)ncc3Cl)ccc2n(C)c1=O` (stereo not drawn) [compound 60, 2-((6-((5-chloro-2-(4-(2-(2-(2-(2-((2-(2,6-dioxopiperidin-3-yl)-1,3-dioxoisoindolin-5-yl)oxy)ethoxy)ethoxy)ethoxy)ethoxy)piperidin-1-yl)pyrimidin-4-yl)amino)-1-methyl-2-oxo-1,2-dihydroquinolin-3-yl)oxy)-N-methylacetamide], for which the DC50 was over 100 nM.

`CNC(=O)COc1cc2cc(Nc3nc(N4CCC(OCCOCCOCCOCCOCCOc5cc(-c6scnc6C)ccc5CNC(=O)[C@@H]5C[C@@H](O)CN5C(=O)C(c5cc(C)no5)C(C)C)CC4)ncc3Cl)ccc2n(C)c1=O` (stereo partly drawn) [compound 55]: the DC50 is over 100 nM.

In the case of `CNC(=O)COc1cc2cc(Nc3nc(N4CCC(OCCOCCOCCCOc5ccc6c(c5)CN(C5CCC(=O)NC5=O)C6=O)CC4)ncc3Cl)ccc2n(C)c1=O` (stereo not drawn) [compound 146, 2-((6-((5-chloro-2-(4-(2-(2-(3-((2-(2,6-dioxopiperidin-3-yl)-1-oxoisoindolin-5-yl)oxy)propoxy)ethoxy)ethoxy)piperidin-1-yl)pyrimidin-4-yl)amino)-1-methyl-2-oxo-1,2-dihydroquinolin-3-yl)oxy)-N-methylacetamide], the DC50 is over 100 nM.

In the case of `CN1CC[C@H](Oc2cc3cc(Nc4nc(N5CCC(CN6CCN(c7ccc8c(c7)C(=O)N(C7CCC(=O)NC7=O)C8=O)CC6)CC5)ncc4Cl)ccc3n(C)c2=O)C1=O` (stereo partly drawn) [compound 259, 5-(4-((1-(5-chloro-4-((1-methyl-3-(((S)-1-methyl-2-oxopyrrolidin-3-yl)oxy)-2-oxo-1,2-dihydroquinolin-6-yl)amino)pyrimidin-2-yl)piperidin-4-yl)methyl)piperazin-1-yl)-2-(2,6-dioxopiperidin-3-yl)isoindoline-1,3-dione], the 50% inhibitory concentration (IC50) is at least 100 nM. Further, under “T47D”, the Dmax was under 50%.

`CCn1c(=O)c(OCC(=O)NC)cc2cc(Nc3nc(N4CCC(CN5CC6(C5)CN(c5ccc7c(c5)C(=O)N(C5CCC(=O)NC5=O)C7=O)C6)CC4)ncc3Cl)ccc21` (stereo not drawn) [compound 298, 2-{[6-({5-chloro-2-[4-({6-[2-(2,6-dioxopiperidin-3-yl)-1,3-dioxo-2,3-dihydro-1H-isoindol-5-yl]-2,6-diazaspiro[3.3]heptan-2-yl}methyl)piperidin-1-yl]pyrimidin-4-yl}amino)-1-ethyl-2-oxo-1,2-dihydroquinolin-3-yl]oxy}-N-methylacetamide] registered a half-maximal inhibitory concentration (IC50) of under 10 nM. The same compound showed a Dmax (T47D) of 50 to 70%.

On to `Cn1c(=O)c(N2CCC2=O)cc2cc(Nc3nc(N4CCN(CC5CCN(c6ccc7c(c6)C(=O)N(C6CCC(=O)NC6=O)C7=O)CC5)CC4)ncc3Cl)ccc21` (stereo not drawn) [compound 249, 5-(4-((4-(5-chloro-4-((1-methyl-2-oxo-3-(2-oxoazetidin-1-yl)-1,2-dihydroquinolin-6-yl)amino)pyrimidin-2-yl)piperazin-1-yl)methyl)piperidin-1-yl)-2-(2,6-dioxopiperidin-3-yl)isoindoline-1,3-dione], for which the IC50 is at least 100 nM.
